Measurements taken from patent US8507539B2, “Potassium channel blockers and uses thereof” (Bionomics Limited, priority 2008, dated 2013).
pIC50: −log10 of the molar value.

The compounds below were run against hKv1.3 (Homo sapiens, UniProt P22001) (assay: Whole-cell patch-clamp block of Kv1.3 current in CHO cells stably expressing hKv1.3). Conditions: CHO cells stably expressing hKv1.3, whole-cell patch clamp; reported as ranges; read-out: IC50 (Kv1.3).
Sequence of hKv1.3 (P22001 whole entry): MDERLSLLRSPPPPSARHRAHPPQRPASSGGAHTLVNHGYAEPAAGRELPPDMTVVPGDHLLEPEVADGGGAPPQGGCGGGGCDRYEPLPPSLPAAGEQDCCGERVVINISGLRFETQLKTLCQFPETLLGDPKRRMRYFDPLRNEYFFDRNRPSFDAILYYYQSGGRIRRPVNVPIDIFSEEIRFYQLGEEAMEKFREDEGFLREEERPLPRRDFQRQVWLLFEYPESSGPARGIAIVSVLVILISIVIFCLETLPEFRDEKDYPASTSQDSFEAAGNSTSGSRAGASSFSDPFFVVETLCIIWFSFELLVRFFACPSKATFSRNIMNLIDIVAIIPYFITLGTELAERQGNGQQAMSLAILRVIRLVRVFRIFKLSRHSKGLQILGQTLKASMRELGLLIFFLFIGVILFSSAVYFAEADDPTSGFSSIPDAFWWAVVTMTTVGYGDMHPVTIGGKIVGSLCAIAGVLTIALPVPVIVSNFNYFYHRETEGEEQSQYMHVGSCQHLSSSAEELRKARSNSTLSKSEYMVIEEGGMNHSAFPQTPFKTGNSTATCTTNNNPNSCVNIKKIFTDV
Assay type: cell-based
Experimental: The effectiveness of the generated compounds in blocking the Kv1.3 current was assayed on CHO cells stably expressing hKv1.3. Cells were grown in F12 Kaighns' medium supplemented with 10% fetal calf serum, 2 mM L-glutamine, 1 mM Na^+ pyruvate, 100 units/ml penicillin, 100 Fg/ml streptomycin and 500 μg/ml G418 (to keep them under selection pressure). Kv1.3 currents were measured using the whole-cell configuration of the patch-clamp technique and were evoked by 500 ms depolarising voltage pulses to +40 mV from a holding potential of −80 mV at 30 sec intervals. Cells were continuously bathed in Ringers solution containing (mM): 160 NaCl, 4.5 KCl, 2.5 CaCl2, 1 MgCl2, 10 HEPES, pH 7.4, 290-310 mOsm. The internal (pipette) solution contained (mM): 134 KF, 2 MgCl2, 10 HEPES, 10 EGTA (pH 7.2, 290-310 mOsm). Series resistance compensation (60-80%) was applied when the peak current amplitude exceeded 2 nA. Compounds initially dissolved in DMSO were diluted in bath solution (final DMSO concentration 0.5%) and applied directly to the recording chamber at increasing concentrations allowing ample time for steady state block to be achieved between each concentration. Each compound was tested at 4-5 different concentrations in triplicate. IC50 values were determined by fitting the average normalised reduction of the current integral to the Hill equation.
CC(=O)c1c(OCCN2CCC(C)(O)CC2)c(OCCC(C)c2ccc(F)cc2)c2oc(C)nc2c1C (stereo not drawn) [Example 19, 5-Acetyl-7-[3-(4-fluorophenyl)butoxy]-6-[2-(4-hydroxy-4-methyl-piperidin-1-yl)-ethoxy]-2,4-dimethyl-benzooxazole] gave a pIC50 of 6.70 to 7.30. With CC(=O)c1c(OCCN2CCCC(F)(F)C2)c(OCCC(C)c2ccc(F)cc2)c2oc(C)nc2c1C (stereo not drawn) [Example 43, 5-Acetyl-7-[3-(4-fluorophenyl)butoxy]-6-[2-(3,3-difluoropiperidin-1-yl)-ethoxy]-2,4-dimethyl-benzooxazole] the pIC50 was over 7.30. CC(=O)c1c(OCCc2ccccn2)c(OCCC(C)c2ccc(F)cc2)c2oc(C)nc2c1C (stereo not drawn) [Example 8, 5-Acetyl-7-[3-(4-fluorophenyl)butoxy]-2,4-dimethyl-6-(2-pyridin-2-yl-ethoxy)-benzooxazole] showed a pIC50 of over 7.30. CC(=O)c1c(OCCn2ccnc2C)c(OCCC(C)c2ccc(F)cc2)c2oc(C)nc2c1C (stereo not drawn) [Example 16, 5-Acetyl-7-[3-(4-fluorophenyl)butoxy]-2,4-dimethyl-6-[2-(2-methylimidazol-1-yl)-ethoxy]-benzooxazole] gave a pIC50 of 6.70 to 7.30. With CC(=O)c1c(OCC[n+]2ccc(N)cc2)c(OCCC(C)c2ccc(F)cc2)c2oc(C)nc2c1C (stereo not drawn) [Example 21, 5-Acetyl-6-(2-(4-aminopyridin-1-ium)ethoxy)-7-[3-(4-fluorophenyl)butoxy]-2,4-dimethyl-benzo[d]oxazole chloride] the pIC50 was under 6.00. With CC(=O)c1c(OCCNC(C)(C)C)c(OCCC(C)c2ccc(F)cc2)c2oc(C)nc2c1C (stereo not drawn) [Example 26, 5-Acetyl-6-(2-(N-tertbutylamino)ethoxy)-7-[3-(4-fluorophenyl)butoxy]-2,4-dimethyl-benzo[d]oxazole] the pIC50 was 6.00 to 6.70. In the case of CCN(CC)CCOc1c(C(C)=O)c(C)c2nc(C)oc2c1OCCC(C)c1ccc(F)cc1 (stereo not drawn) [Example 20, 5-Acetyl-6-(2-diethylamino-ethoxy)-7-[3-(4-fluorophenyl)butoxy]-2,4-dimethyl-benzooxazole], the pIC50 was 6.00 to 6.70. In the case of CC(=O)c1c(OCCN2CCN(C)CC2)c(OCCC(C)c2ccc(F)cc2)c2oc(C)nc2c1C (stereo not drawn) [Example 25], the pIC50 was 6.00 to 6.70. CC(=O)c1c(OCCN2CCOCC2)c(OCCC(C)c2ccc(F)cc2)c2oc(C)nc2c1Cl (stereo not drawn) [Example 38h, 5-Acetyl-4-chloro-7-(3-(4-fluorophenyl)butoxy)-6-(2-(morpholin-4-yl)ethoxy)-2-methyl-benzo[d]oxazole] showed a pIC50 of 6.70 to 7.30. CC(=O)c1c(OCCN2CC[S+]([O-])CC2)c(OCCC(C)c2ccc(F)cc2)c2oc(C)nc2c1C (stereo not drawn) [Example 14, 5-Acetyl-7-[3-(4-fluorophenyl)butoxy]-2,4-dimethyl-6-[2-(1-oxo-thiomorpholin-4-yl)-ethoxy]-benzooxazole] showed a pIC50 of 6.70 to 7.30. For CC(=O)c1c(OCCN2CCOCC2)c(OCCC(C)c2ccc(F)cc2)c2oc(C(C)C)nc2c1C (stereo not drawn) [Example 32c, 5-Acetyl-7-[3-(4-fluorophenyl)butoxy]-2-isopropyl-4-methyl-6-(2-morpholin-4-O-ethoxy)-benzo[d]oxazole], the pIC50 was over 7.30. CC(=O)c1c(OCCc2cccc[n+]2[O-])c(OCCC(C)c2ccc(F)cc2)c2oc(C)nc2c1C (stereo not drawn) [Example 9, 2-(2-(5-acetyl-7-(3-(4-fluorophenyl)butoxy)-2,4-dimethylbenzo[d]oxazol-6-yloxy)ethyl)pyridine 1-oxide] gave a pIC50 of 6.00 to 6.70. CC(=O)c1c(OCCn2ccnc2)c(OCCC(C)c2ccc(F)cc2)c2ocnc2c1C (stereo not drawn) [Example 5, 5-Acetyl-7-[3-(4-fluorophenyl)butoxy]-4-methyl-6-(2-N-imidazolyl-ethoxy)benzooxazole] gave a pIC50 of over 7.30. CC(=O)c1c(OCCN2CCC(=O)CC2)c(OCCC(C)c2ccc(F)cc2)c2oc(C)nc2c1C (stereo not drawn) [Example 12, 1-(2-{5-Acetyl-7-[3-(4-fluorophenyl)butoxy]-2,4-dimethyl-benzooxazol-6-yloxy}-ethyl)-piperidin-4-one] gave a pIC50 of 6.70 to 7.30. Work on CC(=O)c1c(OCCn2ccnc2)c(OCCC(C)c2ccc(F)cc2)c2oc(C)nc2c1C (stereo not drawn) [Example 10b, 5-Acetyl-7-[3-(4-fluorophenyl)butoxy]-6-(2-imidazol-1-yl-ethoxy)-2,4-dimethyl-benzooxazole] yielded a pIC50 of 6.70 to 7.30.
